We go through 20 compounds from publication PMC6980356 (Bioorganic & medicinal chemistry letters, 2014).

For assay [1], the target named is T1, hTRPV1 (Homo sapiens, UniProt Q8NER1). The assay can be described thus: FLIPR inhibition of TRPV1 activation by capsaicin. In kind it is cell-based. To be noted: for antagonism toward capsaicin (in words): capsaicin 100 nM, hTRPV1 in CHO cells.
For assay [2], the target named is T1, hTRPV1. The assay can be described thus: hTRPV1 antagonism toward pH activation. In kind it is cell-based. The following applies: activator pH.
The target of assay [3] is T1, hTRPV1. The assay can be described thus: hTRPV1 antagonism toward heat. In kind it is cell-based.
Assay [4] concerns the target T1, hTRPV1. The assay can be described thus: hTRPV1 antagonism toward NADA activation. In kind it is cell-based. The following applies: activator NADA.
Assay [5] deals with CCI-induced cold allodynia. Put plainly: Mouse chronic constriction injury. It is filed as in vivo. To be noted: mouse CCI model, po.

T1 sequence (Q8NER1 whole entry): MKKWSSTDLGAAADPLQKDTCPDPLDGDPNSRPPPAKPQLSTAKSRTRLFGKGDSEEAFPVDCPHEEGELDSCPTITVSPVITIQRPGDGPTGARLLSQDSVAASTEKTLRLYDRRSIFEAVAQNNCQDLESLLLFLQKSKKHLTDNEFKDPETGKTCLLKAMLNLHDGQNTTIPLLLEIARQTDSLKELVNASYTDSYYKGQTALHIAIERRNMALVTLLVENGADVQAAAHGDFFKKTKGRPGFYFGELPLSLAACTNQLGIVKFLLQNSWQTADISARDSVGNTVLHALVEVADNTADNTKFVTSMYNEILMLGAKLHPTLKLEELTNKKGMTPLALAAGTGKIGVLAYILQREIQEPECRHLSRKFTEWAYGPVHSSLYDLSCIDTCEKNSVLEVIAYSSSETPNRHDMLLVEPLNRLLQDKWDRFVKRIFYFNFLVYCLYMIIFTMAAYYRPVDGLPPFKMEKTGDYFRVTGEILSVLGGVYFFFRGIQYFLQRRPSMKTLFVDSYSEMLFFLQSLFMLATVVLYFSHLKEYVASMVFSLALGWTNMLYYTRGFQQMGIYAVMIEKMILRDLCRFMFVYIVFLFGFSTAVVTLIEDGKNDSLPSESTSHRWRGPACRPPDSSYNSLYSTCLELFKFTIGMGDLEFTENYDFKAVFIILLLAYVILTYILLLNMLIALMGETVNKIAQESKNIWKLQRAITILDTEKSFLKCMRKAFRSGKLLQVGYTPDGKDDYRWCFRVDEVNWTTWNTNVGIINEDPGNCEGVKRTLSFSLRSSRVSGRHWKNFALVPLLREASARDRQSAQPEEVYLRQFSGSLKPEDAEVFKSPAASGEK

As for `CC(C(=O)NCc1ccc(C(F)(F)F)nc1-c1ccccc1)c1ccc(NS(C)(=O)=O)c(F)c1` (stereo not drawn) [Compound 8], the “fold less potent than the 2-cyclohexyl derivative” value at hTRPV1 [1] (Ki(CAP) relative to 2-cyclohexyl derivative) was “ca. 10 fold”. In addition, the “antagonism toward capsaicin (in words)” value at hTRPV1 [1] is “reasonable antagonism”.

Consider `CC(C(=O)NCc1ccc(C(F)(F)F)nc1-c1cccc(Cl)c1)c1ccc(NS(C)(=O)=O)c(F)c1` (stereo not drawn) [Compound 13], for which the “fold increase in potency compared to 8” value at hTRPV1 [1] (Ki(CAP) relative to parent 8) is given as 13 fold.

`CC(C(=O)NCc1ccc(C(F)(F)F)nc1-c1cccs1)c1ccc(NS(C)(=O)=O)c(F)c1` (stereo not drawn) [Compound 26]: on hTRPV1 [1] (Ki(CAP) relative to parent 8), the “fold increase in potency compared to 8” value was “ca. 20 fold”.

`CC(C(=O)NCc1ccc(C(F)(F)F)nc1-c1ccc(F)c(Cl)c1)c1ccc(NS(C)(=O)=O)c(F)c1` (stereo not drawn) [Compound 18]: the “fold increase in potency compared to 8” value on hTRPV1 [1] (Ki(CAP) relative to parent 8) is listed as “ca. 30 fold”.

For the compound `CC(C(=O)NCc1ccc(C(F)(F)F)nc1-c1ccco1)c1ccc(NS(C)(=O)=O)c(F)c1` (stereo not drawn) [Compound 28], the “antagonism toward capsaicin (in words)” value on hTRPV1 [1] is recorded as “higher potency than phenyl derivative 8”.

Take `COc1ccc(-c2nc(C(F)(F)F)ccc2CNC(=O)C(C)c2ccc(NS(C)(=O)=O)c(F)c2)cc1` (stereo not drawn) [Compound 14]: the “fold increase in potency compared to 8” value at hTRPV1 [1] (Ki(CAP) relative to parent 8) came out at 6 fold.

With `CC(C(=O)NCc1ccc(C(F)(F)F)nc1-n1ccnc1)c1ccc(NS(C)(=O)=O)c(F)c1` (stereo not drawn) [Compound 30], the “antagonism toward capsaicin (in words)” value on hTRPV1 [1] is listed as “weak antagonist”.

Consider `Cc1cc(-c2nc(C(F)(F)F)ccc2CNC(=O)C(C)c2ccc(NS(C)(=O)=O)c(F)c2)ccc1F` (stereo not drawn) [Compound 19], for which, at hTRPV1 [1], the “antagonism toward capsaicin (in words)” value is on record as “retained high potencies”.

As to `CC(C(=O)NCc1ccc(C(F)(F)F)nc1-c1ccc(Cl)cc1)c1ccc(NS(C)(=O)=O)c(F)c1` (stereo not drawn) [Compound 12], on hTRPV1 [1] (Ki(CAP) relative to parent 8), the “fold increase in potency compared to 8” value came out at 9 fold.

For orientation: IC50 means the point on the concentration scale where inhibition reaches its midpoint. A low value points to inhibition by little substance. With `CC(C(=O)NCc1ccc(C(F)(F)F)nc1-c1ccc(F)cc1)c1ccc(NS(C)(=O)=O)c(F)c1` (stereo not drawn) [Compound 9], the “fold increase in potency compared to 8” value at hTRPV1 [1] (Ki(CAP) relative to parent 8) turned out to be 16 fold. Further, the “antagonism toward capsaicin (in words)” value on hTRPV1 [1] is recorded as “excellent antagonism”. The “antagonism toward pH (in words)” value on hTRPV1 [2] was “moderate antagonism”. Besides, on hTRPV1 [3], the IC50 worked out at 25.9 nM. In addition, the “antagonism toward heat (in words)” value on hTRPV1 [3] (activator heat) is “moderate antagonism”. For the same compound, the “antagonism toward NADA (in words)” value at hTRPV1 [4] is “excellent antagonism”. In assay [5], the “anti-allodynic efficacy (limited efficacy)” value came to 53 % MPE.

Take `CC(C(=O)NCc1ccc(C(F)(F)F)nc1-c1ccc(N(C)C)cc1)c1ccc(NS(C)(=O)=O)c(F)c1` (stereo not drawn) [Compound 15]: the “fold increase in potency compared to 8” value on hTRPV1 [1] (Ki(CAP) relative to parent 8) was determined as 2 fold.

As to `CC(C(=O)NCc1ccc(C(F)(F)F)nc1Cc1ccccc1)c1ccc(NS(C)(=O)=O)c(F)c1` (stereo not drawn) [Compound 35], the “antagonism toward capsaicin (in words)” value on hTRPV1 [1] is “weak antagonist”.

`CC(C(=O)NCc1ccc(C(F)(F)F)nc1-c1cccc(NS(C)(=O)=O)c1)c1ccc(NS(C)(=O)=O)c(F)c1` (stereo not drawn) [Compound 17]: at hTRPV1 [1], the “antagonism toward capsaicin (in words)” value is listed as “lack of activity”.

As for `CC(C(=O)NCc1ccc(C(F)(F)F)nc1-c1ccc(C(C)(C)C)cc1)c1ccc(NS(C)(=O)=O)c(F)c1` (stereo not drawn) [Compound 16], the “fold increase in potency compared to 8” value on hTRPV1 [1] (Ki(CAP) relative to parent 8) was 13 fold.

Turning to `CC(C(=O)NCc1ccc(C(F)(F)F)nc1-c1ccc(Cl)c(Cl)c1)c1ccc(NS(C)(=O)=O)c(F)c1` (stereo not drawn) [Compound 20], the “antagonism toward capsaicin (in words)” value on hTRPV1 [1] was “retained high potencies”.

In the case of `CC(C(=O)NCc1ccc(C(F)(F)F)nc1-c1ccsc1)c1ccc(NS(C)(=O)=O)c(F)c1` (stereo not drawn) [Compound 27], the “antagonism toward capsaicin (in words)” value on hTRPV1 [1] is listed as “potent antagonist”.

As for `CC(C(=O)NCc1ccc(C(F)(F)F)nc1CCc1ccccc1)c1ccc(NS(C)(=O)=O)c(F)c1` (stereo not drawn) [Compound 36], on hTRPV1 [1], the “antagonism toward capsaicin (in words)” value is reported as “dramatic increase in antagonism”.

With `CC(C(=O)NCc1ccc(C(F)(F)F)nc1-c1ccccc1F)c1ccc(NS(C)(=O)=O)c(F)c1` (stereo not drawn) [Compound 11], the “fold reduction in potency compared to 8” value at hTRPV1 [1] (Ki(CAP) relative to parent 8) is 10 fold.

As for `CC(C(=O)NCc1ccc(C(F)(F)F)nc1-c1cccc(F)c1)c1ccc(NS(C)(=O)=O)c(F)c1` (stereo not drawn) [Compound 10], on hTRPV1 [1] (Ki(CAP) relative to parent 8), the “fold increase in potency compared to 8” value came to 5 fold.

For the compound `CC(C(=O)NCc1ccc(C(F)(F)F)nc1-c1ccoc1)c1ccc(NS(C)(=O)=O)c(F)c1` (stereo not drawn) [Compound 29], the “antagonism toward capsaicin (in words)” value on hTRPV1 [1] is listed as “higher potency than phenyl derivative 8”.
